Experimental data as given in patent publication US7943628B2, “Pyrimidine derivatives” (Pfizer Limited, priority 2005, dated 2011).
Where a name gives a salt, the structure may show the parent alone.

Target: T1, histamine H4 receptor (Homo sapiens, UniProt Q9H3N8)
T1 construct: expressed in transfected cells; host or cells: CHO cells
Test: H4 binding, method 1 ([3H]-histamine filtration binding on CHO cell membranes)
Settings: H4 binding, method 1; Ki calculated from IC50 (Cheng-Prussoff)
Procedure: Cell pellets from CHO cells expressing the histamine H4 receptor were homogenised in ice-cold 50 mM Tris-HCl/0.5 mM CaCl2 buffer containing a protease inhibitor cocktail (Roche®, United Kingdom) using a ground glass homogeniser. Homogenates were centrifuged at 48000 g for 30 min at 4° C. The membrane pellet was resuspended in fresh buffer and the centrifugation step was repeated as described above. The membrane pellet was resuspended in 50 mM Tris-HCl in the same volume as the original cell pellet. Aliquots of membrane preparations were stored at −80° C. and were used for [^3H]-Histamine binding experiments.
Cell membranes (20-35 μg/well) were incubated for 90 minutes shaking at room temperature with 3 nM [2,5-^3H]Histamine dihydrochloride (30-60 Ci/mmol) in 50 mM Tris-HCl (pH 7.4), with or without competing H4 ligands. The reaction was terminated by rapid filtration through 0.5% polyethylenimine-soaked Unifilter GF/B plates (Packard) followed by three washes with 1 ml ice-cold 50 mM Tris-HCl. Filters were dried for 45 min at 45° C. and bound radiolabel was determined using scintillation counting techniques. Non-specific binding was defined with 10 μM JNJ7777120.

Row | Ki | SMILES
1 | 2.62 nM | CNC1CN(c2cc(NCC(C)(C)C)nc(N)n2)C1 [Example 159, N^4-(2,2-Dimethylpropyl)-6-[3-(methylamino)azetidin-1-yl]pyrimidine-2,4-diamine hydrochloride]
2 | 2.65 nM | CNC1CN(c2cc(N[C@H](C)C(C)C)nc(N)n2)C1 [Example 160, N^4-[(1R)-1,2-Dimethylpropyl]-6-[3-(methylamino)azetidin-1-yl]pyrimidine-2,4-diamine]
3 | 2.75 nM | CC[C@H](C)Nc1cc(N2CC(NC)C2)nc(N)n1 [Example 161, 6-[3-(Methylamino)azetidin-1-yl]-N^4-[(1S)-1-methylpropyl]pyrimidine-2,4-diamine]
4 | 3.82 nM | CCNc1cc(N2CC(NC)C2)nc(N)n1 [Example 164, N^4-Ethyl-6-[3-(methylamino)azetidin-1-yl]pyrimidine-2,4-diamine]
5 | 6.3 nM | CN[C@@H]1CCN(c2cc(NCC3CC3)nc(N)n2)C1 [Example 167, N^4-(Cyclopropylmethyl)-6-[(3R)-3-(methylamino)pyrrolidin-1-yl]pyrimidine-2,4-diamine]
6 | 6.5 nM | CNC1CN(c2cc(NC(C)(C)C)nc(N)n2)C1 [Example 168, N^4-(tert-Butyl)-6-[3-(methylamino)azetidin-1-yl]pyrimidine-2,4-diamine]

Continued, compound first:

Row | SMILES | Ki
7 | CN[C@@H]1CCN(c2cc(NC3(C)CC3)nc(N)n2)C1 [Example 149, 6-[(3R)-3-(Methylamino)pyrrolidin-1-yl]-N^4-(1-methylcyclopropyl)pyrimidine-2,4-diamine] | 5.2 nM
8 | CC[C@H](C)Nc1cc(N2CC[C@@H](NC)C2)nc(N)n1 [Example 151, 6-[(3R)-3-(Methylamino)pyrrolidin-1-yl]-N^4-[(1S)-1-methylpropyl]pyrimidine-2,4-diamine] | 12.4 nM
9 | CC[C@@H](C)Nc1cc(N2CC[C@@H](NC)C2)nc(N)n1 [Example 152, 6-[(3R)-3-(Methylamino)pyrrolidin-1-yl]-N^4-[(1R)-1-methylpropyl]pyrimidine-2,4-diamine] | 16.9 nM
10 | CCC(C)Nc1cc(N2CC(NC)C2)ncn1 (stereo not drawn) [Example 153, N-(sec-Butyl)-6-[3-(methylamino)azetidin-1-yl]pyrimidin-4-amine] | 11.5 nM
11 | Nc1nc(NCC2CC2)cc(N2CCNCC2)n1 [Example 154, N^4-(Cyclopropylmethyl)-6-piperazin-1-ylpyrimidine-2,4-diamine] | 1.71 nM
12 | CN[C@@H]1CCN(c2cc(NCc3ccc(F)cc3)nc(N)n2)C1 [Example 155, N^4-(4-Fluorobenzyl)-6-[(3R)-3-(methylamino)pyrrolidin-1-yl]pyrimidine-2,4-diamine] | 1.78 nM
13 | CC(C)(C)CNc1cc(N2CCNCC2)nc(N)n1 [Example 156, N^4-(2,2-Dimethylpropyl)-6-piperazin-1-ylpyrimidine-2,4-diamine] | 2.44 nM
14 | CNC1CN(c2cc(NCc3ccc(F)cc3F)nc(N)n2)C1 [Example 157, N^4-(2,4-Difluorobenzyl)-6-[3-(methylamino)azetidin-1-yl]pyrimidine-2,4-diamine] | 2.49 nM
15 | CCCC(C)Nc1cc(N2CC(NC)C2)nc(N)n1 (stereo not drawn) [Example 158, 6-[3-(Methylamino)azetidin-1-yl]-N^4-(1-methylbutyl)pyrimidine-2,4-diamine] | 2.59 nM
16 | CCCNc1cc(N2CCNCC2)nc(N)n1 [Example 163, 6-Piperazin-1-yl-N^4-propylpyrimidine-2,4-diamine] | 3.78 nM
17 | Nc1nc(NCC2CC2)cc(N2C[C@H]3CCCN[C@H]3C2)n1 [Example 165, N^4-(Cyclopropylmethyl)-6-[(4aR,7aR)-octahydro-6H-pyrrolo[3,4-b]pyridin-6-yl]pyrimidine-2,4-diamine] | 3.83 nM
18 | CC(C)(C)CNc1cc(N2C[C@@H]3CCCN[C@@H]3C2)nc(N)n1 [Example 166, N^4-(2,2-Dimethylpropyl)-6-[(4aS,7aS)-octahydro-6H-pyrrolo[3,4-b]pyridin-6-yl]pyrimidine-2,4-diamine] | 3.99 nM
